In ChEMBL document CHEMBL2034902, “Simplified bicyclic pyridinol analogues protect mitochondrial function” (2012):
Activity calls are given as the source filed them. No cut-off for these calls is given here.

Assays:
CCRF-CEM [1] = assay: Cytoprotective activity against DEM-induced ROS production in human CEM cells treated prior DEM challenge after 16 hrs by DCFH-DA-based flow cytometry relative to alpha-tocopherol; type: functional, cell-based
CCRF-CEM [2] = assay: Cytoprotective activity against DEM-induced ROS production in human CEM cells assessed as reduction in lipid peroxidation at 2.5 to 5 uM treated prior DEM challenge measured after 16 hrs by C11-BODIPY581/591-based flow cytometry relative to alpha-tocopherol; type: functional, cell-based
CCRF-CEM [3] = assay: Cytoprotective activity against DEM-induced ROS production in human CEM cells at 1 to 5 uM pretreated for 16 hrs prior DEM challenge measured after 5.5 hrs by trypan blue exclusion method; type: functional, cell-based
CCRF-CEM [4] = assay: Cytoprotective activity against DEM-induced ROS production in human CEM cells assessed as cells with intact mitochondrial potential at 1 uM pretreated for 16 hrs prior DEM challenge measured after 120 mins by TMRM-based flow cytometry (reference value: 94%); type: functional
CCRF-CEM [5] = assay: Cytoprotective activity against DEM-induced ROS production in human CEM cells assessed as cells with intact mitochondrial potential at 2.5 uM pretreated for 16 hrs prior DEM challenge measured after 120 mins by TMRM-based flow cytometry (reference value: 94%); type: functional
CCRF-CEM [6] = assay: Cytoprotective activity against DEM-induced ROS production in human CEM cells assessed as prevention of loss of mitochondrial potential pretreated for 16 hrs prior DEM challenge measured after 120 mins by TMRM-based flow cytometry (reference value: 94%); type: functional, cell-based

SMILES	Activity (CCRF-CEM [1])	Activity (CCRF-CEM [2])	Activity (CCRF-CEM [3])	Activity (CCRF-CEM [4]) [%]	Activity (CCRF-CEM [5]) [%]	Activity (CCRF-CEM [6])
Cc1c(C)c2c(c(C)c1O)CC[C@@](C)(CCC[C@H](C)CCC[C@H](C)CCCC(C)C)O2	Active	Active	Active	–	–	–
CCCCCCCCCCc1nc2c(c(C)c1OC(C)=O)CCN2C	Dose-dependent effect	Active	Active	75	82	Dose-dependent effect
CCCCCCCCCCCCCCCCc1nc2c(c(C)c1OC(C)=O)CCN2C	Active	Active	Active	50	65	Dose-dependent effect
CCCCCc1nc2c(c(C)c1O)CCN2C.O=C(O)C(F)(F)F	inactive	inactive	Active	40	63	Dose-dependent effect
CCCCCc1nc2c(c(C)c1OC(C)=O)CCN2C	inactive	inactive	Active	30	60	Dose-dependent effect
CCCCCCCCCCc1nc2c(c(C)c1O)CCN2C.O=C(O)C(F)(F)F	Dose-dependent effect	Active	Active	80	84	Dose-dependent effect
CCCCCCCCCCCCCCCCc1nc2c(c(C)c1O)CCN2C.O=C(O)C(F)(F)F	Active	Active	inactive	46	70	Dose-dependent effect
